In PMC11609934, “Exploration and characterization of the antimalarial activity of cyclopropyl carboxamides that target the mitochondrial protein, cytochrome b” (European Journal of Medicinal Chemistry, 2024):
pEC50, pIC50: −log10 of the molar value. Where two headings read alike, the source gives them in different places.

Key:
[1] = tested on: W466-resistant populations; experiment: 72 h growth assay against W466-resistant populations; format: cell-based, Plasmodium falciparum; conditions: for pEC50: Plasmodium falciparum
From the text: To determine the mechanism of action of the cyclopropyl carboxamide series, a forward genetic resistance study was undertaken on the two hit compounds W466 (1) and W499 (2).
The structures of W466 (1) and W499 (2) are slightly different although they appear to belong to the same structural class. To confirm if W466 (1) and W499 (2) may have the same molecular target, W466 (1) and W499 (2) were each evaluated for cross resistance against their respective resistant populations from the pulsed forward genetic study (Fig. 2).

3D7 P. falciparum strain = experiment: Parasite reduction ratio (PRR) assay; format: cell-based, Plasmodium falciparum; conditions: 10 times the EC50, up to 120 h
Method: The parasite reduction ratio (PRR) assay is a benchmark assay used to determine the speed of kill of antimalarials at an early stage of development. […] After 28 days of incubation, parasite growth is measured using an LDH assay.
Parasite Reduction Ratio Assay. This is a platform assay conducted by TGC Lifesciences using a previously described protocol. […] Parasites were treated up to 120 h. Drug was renewed every 24 h over the entire treatment period (as directed). Samples of parasites were taken from the treated culture every 24 h (24, 48, 72, 96 and 120 h time points), drug was washed out and drug-free parasites were cultured in 96 well plates. To quantify number of viable parasites after treatment, serial dilutions were performed with the above-mentioned compounds after washing out the compound. Parasites were cultured in microtiter plates to allow all wells with viable parasites, to render detectable parasitaemia. After 22 days of culturing, cultured plates were checked for parasite growth. Final sampling was done after 28 days to confirm growth/no growth. The parasite levels were determined using a LDH assay as follows. A culture of parasitized red blood cells (RBC) of strain 3D7 with 0.25 % parasitaemia and 2 % haematocrit in RPMI-1640, 0.5 % albumax and 150 μM hypoxanthine is exposed to 3-fold serial dilutions of the compound. […]

[2] = tested on: W499-resistant populations; experiment: microbe, parasite or virus in culture; format: cell-based, Plasmodium falciparum; conditions: for pEC50: Plasmodium falciparum
From the text: To confirm if W466 (1) and W499 (2) may have the same molecular target, W466 (1) and W499 (2) were each evaluated for cross resistance against their respective resistant populations from the pulsed forward genetic study (Fig. 2).

[3] = tested on: ring-stage P. falciparum parasites; experiment: Asexual stage of arrest assay; format: cell-based, Plasmodium falciparum; conditions: 10 times EC50, sampled every 12 h for 48 h
Method: Characterization of asexual stage phenotype and rate of asexual kill is important in determining the downstream application and TCP of an antimalarial series. […] Parasites were sampled every 12 h for 48 h, to prepare Giemsa-stained blood smears for analysis by microscopy. Parasitemia of each sample was measured by flow cytometry using SYBR-Green DNA staining.
Asexual Stage of Arrest Assay. This assay was conducted as previously described.

Dd2-B2 = experiment: 72 h SYBR Green I / MitoTracker flow cytometry assay, Dd2-B2; format: cell-based; conditions: Plasmodium falciparum, DD2, 72 h
Method: MIR assay.Plasmodium falciparum asexual blood stage (ABS) parasites were cultured at 3 % hematocrit in human O^+ RBCs in RPMI-1640 media, supplemented with 25 mM HEPES, 50 mg/L hypoxanthine, 2 mM L-glutamine, 0.21 % sodium bicarbonate, 0.5 % (wt/vol) AlbuMAXII (Invitrogen) and 10 μg/mL gentamycin, in modular incubator chambers (Billups- Rothenberg) at 5 % O2, 5 % CO2 and 90 % N2 at 37 °C. Dd2 parasites were obtained from T. Wellems (NIAID, NIH). Dd2-B2 is a genetically homogenous line that was cloned from Dd2 by limiting dilution in the Fidock lab. Dd2-Polδ is a line edited in the Fidock Lab to have a hypermutable polymerase. […] Parasite survival was assessed by flow cytometry on an iQue flow cytometer (Sartorius) using SYBR Green and MitoTracker Deep Red FM (Life Technologies) as nuclear stain and vital dyes respectively.

[4] = tested on: P. berghei ANKA parasites; experiment: P. berghei 4-day mouse model; format: in vivo, Plasmodium berghei
Method: The 4-day P. berghei mouse model is used to determine the preliminary in vivo efficacy of antimalarials at an early stage of optimization. To determine if cyclopropyl carboxamide series could reduce asexual blood stage infection, we evaluated representative compounds WJM280 (108) and analog 109 in the 4-day P. berghei mouse model. In this model, mice were infected P. berghei asexual stage parasites, and then 2 h after the infection, WJM280 (108) and analog 109 at 50 mg/kg and artesunate at 30 mg/kg were administered by oral gavage. The same compound doses were administered again, 24, 48, and 72 h post infection. Parasitemia was then quantified by preparing blood smears and visualizing by microscopy across days 2, 3, and 4. […] The inability of these compounds to reduce parasitemia was attributed to their high metabolic turnover, which is a characteristic that needs improving on further development of the cyclopropyl carboxamide class.
P. berghei 4-day Mouse Model. This model was conducted as previously described.

Pf Dd2 parental line = experiment: Asexual stage assay, Dd2 parental line (SYBR green by FACS, 72 h); format: cell-based; conditions: Plasmodium falciparum, DD2, 72 h, read-out: Pf Dd2 EC50 (SD), 72 h, SYBR green by FACS, 3 experiments
Method: Cyt b Resistant and ScDHODH Asexual Stage Assays. These assays were conducted as previously described. Briefly, asexual parasite strains indicated in Table 12 were incubated with compound in a dose response format for 72 h. Parasitemia was determined using SYBR-green fluorescence measured by flow cytometry (Thermo Fisher Attune). EC50 values were determined as described for the LDH assay.

SMILES	fold shift in EC50 against W466-resistant populations compared to wildtype 3D7 [1] [fold]	pEC50 ([1]; read-out: EC50 against W466-resistant parasites)	pEC50 ([1]; read-out: W466-resistant populations EC50 (SD) #1)	pEC50 ([1]; read-out: W466-resistant populations EC50 (SD) #2)	pEC50 ([1]; read-out: W466-resistant populations EC50 (SD) #3)	rate of kill in PRR assay (3D7 P. falciparum strain)	fold shift in EC50 against W499-resistant populations compared to wildtype 3D7 [2]	pEC50 ([2]; read-out: W499-resistant population #2 EC50)	pEC50 ([2]; read-out: W499-resistant population #3 EC50)	asexual stage of arrest [3]	pIC50 (Dd2-B2; read-out: IC50 Dd2-B2)	IC90 (Dd2-B2; read-out: IC90 Dd2-B2) [nM]	body weights of mice ([4]; 50 mg/kg q.d. oral, 4 days)	% parasitemia ([4]; mice, day 4, oral gavage q.d. x4, 50 mg/kg (ART 30 mg/kg)) [%]	% reduction in parasitemia ([4]; versus vehicle control, mice, day 4, oral gavage q.d. x4, 50 mg/kg (ART 30 mg/kg)) [%]	pEC50 (Pf Dd2 parental line)
O=C(NC1CC1)c1ccc(CN(Cc2ccc(Cl)cc2Cl)C2CC2)cc1 [W499 (2)]	2	6.55 to 6.66	6.55	6.61	6.67	moderate to slow rate of kill	1.6–1.9 fold	6.69	6.75	parasite arrest at the start of the trophozoite stage	6.95	224	–	–	–	–
CCCN(Cc1ccc(C(=O)NC2CC2)cc1)Cc1ccc(C(F)(F)F)cc1 [WJM280 (108), N-Cyclopropyl-4-((propyl(4-(trifluoromethyl)benzyl)amino)methyl)benzamide]	–	–	–	–	–	–	–	–	–	–	–	–	remained unchanged	81	19	8.00
